# Laboratory results: ChEMBL document CHEMBL5316344, “Homologation of the Alkyl Side Chain of Antimitotic Phenyl 4-(2-Oxo-3-alkylimidazolidin-1-yl)benzenesulfonate Prodrugs Selectively Targeting CYP1A1-Expressing Breast Cancers Improves Their Stability in Rodent Liver Microsomes” (J Med Chem, 2023)
# The source made the active and inactive calls. No cut-off for these calls is given here.
# Legend:
# [1] = Selectivity ratio, ratio of IC50 for antiproliferative activity against human HT-1080 cells to IC50 for antiproliferative activity against human HT-1080 cells expressing CYP1A1; type: functional
# [2] = target: T1, Cytochrome P450 1A1 (Homo sapiens, UniProt P04798); experiment: Binding affinity to human CYP1A1 assessed as inhibition of conversion of 7-ethoicyresorufin into fluorescent resorufin by measuring inhibition constant preincubated for 5 mins followed by […] addition measured every minute for 15 mins by EROD assay; type: ADME
# T1 sequence (P04798 whole entry): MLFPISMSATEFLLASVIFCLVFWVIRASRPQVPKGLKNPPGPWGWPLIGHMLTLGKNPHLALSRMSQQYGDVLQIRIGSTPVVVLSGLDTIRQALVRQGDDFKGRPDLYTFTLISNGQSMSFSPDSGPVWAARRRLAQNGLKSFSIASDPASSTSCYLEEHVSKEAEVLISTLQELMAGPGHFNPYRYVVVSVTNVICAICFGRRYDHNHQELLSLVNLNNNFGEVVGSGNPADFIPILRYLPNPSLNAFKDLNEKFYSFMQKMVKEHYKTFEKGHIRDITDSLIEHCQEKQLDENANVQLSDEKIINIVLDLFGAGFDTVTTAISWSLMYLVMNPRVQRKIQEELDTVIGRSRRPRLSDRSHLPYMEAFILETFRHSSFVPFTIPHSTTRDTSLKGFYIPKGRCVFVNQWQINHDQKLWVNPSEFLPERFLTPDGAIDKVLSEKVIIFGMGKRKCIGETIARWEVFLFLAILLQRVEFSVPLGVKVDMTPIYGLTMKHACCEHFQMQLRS
# [3] = Stability in rat liver microsomes assessed as intrinsic clearance incubated for 60 mins by HPLC analysis; type: ADME, Microsome; conditions: read-out: CLH
# [4] = system: MCF7; experiment: Induction of cell cycle arrest in human MCF7 cells expressing CYP1A1 assessed as accumulation of cells at G2/M phase at 30 nM incubated for 48 hrs by DAPI staining based flow cytometric analysis (reference value: 16+/-2 %); type: functional
# [5] = Stability in rat liver microsomes assessed as half life incubated for 60 mins by HPLC analysis; type: ADME, Microsome
# [6] = system: MCF7; experiment: Antiproliferative activity against human MCF7 cells expressing CYP1A1 assessed as cell growth inhibition incubated for 48 hrs by sulforhodamine B assay; type: functional, cell-based; conditions: MCF7, 48 h
# [7] = Toxicity in chick embryo xenografted with human […] cells expressing CYP1A1 assessed as mortality at 1 ug, iv incubated for 17 days; type: organism-based, Gallus gallus; conditions: chicken, in vivo, 408 h, dose 1 µg, time 17 day
# [8] = system: HT-1080; experiment: Antiproliferative activity against human HT-1080 cells transfected with empty vector assessed as cell growth inhibition incubated for 48 hrs by sulforhodamine B assay; type: functional, cell-based; conditions: HT-1080, 48 h
# [9] = system: HT-1080; experiment: Antiproliferative activity against human HT-1080 cells expressing CYP1A1 assessed as cell growth inhibition incubated for 48 hrs by sulforhodamine B assay; type: functional, cell-based; conditions: HT-1080, 48 h
# [10] = system: MCF7; experiment: Induction of cell cycle arrest in human MCF7 cells expressing CYP1A1 assessed as accumulation of cells at S phase at 30 nM incubated for 48 hrs by DAPI staining based flow cytometric analysis (reference value: 11+/-1 %); type: functional
# [11] = system: HT-1080; experiment: Antiproliferative activity against human HT-1080 cells assessed as cell growth inhibition incubated for 48 hrs by sulforhodamine B assay; type: functional, cell-based; conditions: HT-1080, 48 h
# [12] = Selectivity ratio, ratio of IC50 for antiproliferative activity against human HT-1080 cells transfected with empty vector to IC50 for antiproliferative activity against human HT-1080 cells expressing CYP1A1; type: functional
# [13] = Stability in human liver microsomes assessed as half life incubated for 60 mins by HPLC analysis; type: ADME, Microsome
# [14] = system: HT-1080; experiment: Antitumor activity against human HT-1080 cells transfected with empty vector xenografted in chick embryo assessed as reduction in tumor wet weight at 1 ug, iv incubated for 17 days by CAM assay; type: functional; set-up: scale not given: the % may be the effect or the level left; conditions: dose 1 µg, time 17 day
# [15] = system: M21; experiment: Antiproliferative activity against human M21 cells assessed as cell growth inhibition incubated for 48 hrs by sulforhodamine B assay; type: functional, cell-based; conditions: M21, 48 h
# [16] = system: HT-1080; experiment: Antitumor activity against human HT-1080 cells xenografted in chick embryo assessed as reduction in tumor wet weight at 1 ug, iv incubated for 17 days by CAM assay; type: functional; set-up: scale not given: the % may be the effect or the level left; conditions: dose 1 µg, time 17 day
# [17] = system: HT-29; experiment: Antiproliferative activity against human HT-29 cells assessed as cell growth inhibition incubated for 48 hrs by sulforhodamine B assay; type: functional, cell-based; conditions: HT-29, 48 h
# [18] = Stability in human liver microsomes assessed as intrinsic clearance incubated for 60 mins by HPLC analysis; type: ADME, Microsome; conditions: read-out: CLH
# [19] = Selectivity ratio, ratio of IC50 for antiproliferative activity against human M21 cells to IC50 for antiproliferative activity against human MCF7 cells expressing CYP1A1; type: functional
# [20] = Stability in mouse liver microsomes assessed as intrinsic clearance incubated for 60 mins by HPLC analysis; type: ADME, Microsome; conditions: read-out: CLH
# [21] = Selectivity ratio, ratio of IC50 for antiproliferative activity against human HT-29 cells to IC50 for antiproliferative activity against human MCF7 cells expressing CYP1A1; type: functional
# [22] = system: MCF7; experiment: Induction of cell cycle arrest in human MCF7 cells expressing CYP1A1 assessed as accumulation of cells at G0/G1 phase at 30 nM incubated for 48 hrs by DAPI staining based flow cytometric analysis (reference value: 74+/-2 %); type: functional
# [23] = Toxicity in chick embryo xenografted with human […] cells transfected with empty vector assessed as mortality at 1 ug, iv incubated for 17 days; type: organism-based, Gallus gallus; conditions: chicken, in vivo, 408 h, dose 1 µg, time 17 day
# [24] = system: HT-1080; experiment: Antitumor activity against human HT-1080 cells expressing CYP1A1 xenografted in chick embryo assessed as reduction in tumor wet weight at 1 ug, iv incubated for 17 days by CAM assay; type: functional; set-up: scale not given: the % may be the effect or the level left; conditions: dose 1 µg, time 17 day
# [25] = Toxicity in chick embryo xenografted with human […] cells assessed as mortality at 1 ug, iv incubated for 17 days; type: organism-based, Gallus gallus; conditions: chicken, in vivo, 408 h, dose 1 µg, time 17 day
# [26] = Stability in mouse liver microsomes assessed as half life incubated for 60 mins by HPLC analysis; type: ADME, Microsome
# [27] = system: MCF7; experiment: Induction of cell cycle arrest in human MCF7 cells expressing CYP1A1 assessed as accumulation of cells at G0/G1 phase at 690 nM incubated for 48 hrs by DAPI staining based flow cytometric analysis (reference value: 74+/-2 %); type: functional
# [28] = system: MCF7; experiment: Induction of cell cycle arrest in human MCF7 cells expressing CYP1A1 assessed as accumulation of cells at S phase at 690 nM incubated for 48 hrs by DAPI staining based flow cytometric analysis (reference value: 11+/-1 %); type: functional
# [29] = system: MCF7; experiment: Induction of cell cycle arrest in human MCF7 cells expressing CYP1A1 assessed as accumulation of cells at G2/M phase at 690 nM incubated for 48 hrs by DAPI staining based flow cytometric analysis (reference value: 16+/-2 %); type: functional
# [30] = target: T2, Tubulin (Homo sapiens) (UniProt P68371+Q9H4B7+P0DPH7+P68366+Q13509+Q71U36+P04350+Q3ZCM7+P07437+P68363+Q9BQE3+Q6PEY2+Q13885+Q9BVA1+Q9BUF5); experiment: Disruption of microtubules in human MCF7 cells expressing CYP1A1 assessed as cytoskeleton disruption at 970 nM measured after 48 hrs by DAPI staining based fluorescence microscopic analysis; type: cell-based
# [31] = system: MCF7; experiment: Induction of cell cycle arrest in human MCF7 cells expressing CYP1A1 assessed as accumulation of cells at G2/M phase at 145 nM incubated for 48 hrs by DAPI staining based flow cytometric analysis (reference value: 16+/-2 %); type: functional
# [32] = system: MCF7; experiment: Induction of cell cycle arrest in human MCF7 cells expressing CYP1A1 assessed as accumulation of cells at G0/G1 phase at 145 nM incubated for 48 hrs by DAPI staining based flow cytometric analysis (reference value: 74+/-2 %); type: functional
# [33] = system: MCF7; experiment: Induction of cell cycle arrest in human MCF7 cells expressing CYP1A1 assessed as accumulation of cells at S phase at 145 nM incubated for 48 hrs by DAPI staining based flow cytometric analysis (reference value: 11+/-1 %); type: functional
# [34] = target: T2, Tubulin (Homo sapiens); experiment: Disruption of microtubules in human MCF7 cells expressing CYP1A1 assessed as cytoskeleton disruption at 65 nM measured after 48 hrs by DAPI staining based fluorescence microscopic analysis; type: cell-based
# [35] = system: MCF7; experiment: Induction of cell cycle arrest in human MCF7 cells expressing CYP1A1 assessed as accumulation of cells at G2/M phase at 1100 nM incubated for 48 hrs by DAPI staining based flow cytometric analysis (reference value: 16+/-2 %); type: functional
# [36] = target: T2, Tubulin (Homo sapiens); experiment: Disruption of microtubules in human MCF7 cells expressing CYP1A1 assessed as cytoskeleton disruption at 1305 nM measured after 48 hrs by DAPI staining based fluorescence microscopic analysis; type: cell-based
# [37] = system: MCF7; experiment: Induction of cell cycle arrest in human MCF7 cells expressing CYP1A1 assessed as accumulation of cells at G0/G1 phase at 1100 nM incubated for 48 hrs by DAPI staining based flow cytometric analysis (reference value: 74+/-2 %); type: functional
# [38] = system: MCF7; experiment: Induction of cell cycle arrest in human MCF7 cells expressing CYP1A1 assessed as accumulation of cells at S phase at 1100 nM incubated for 48 hrs by DAPI staining based flow cytometric analysis (reference value: 11+/-1 %); type: functional
Compound,Ratio IC50 [1],Ki [2] [nM],microsomal CLint [3] [µL/min/mg],half-life [5] [h],IC50 [6] [nM],IC50 [8] [nM],IC50 [9] [nM],IC50 [11] [nM],Ratio IC50 [12],half-life [13] [h],IC50 [15] [nM],IC50 [17] [nM],microsomal CLint [18] [µL/min/mg],Ratio IC50 [19],microsomal CLint [20] [µL/min/mg],Ratio IC50 [21],half-life [26] [h],other results
CCCCN1CCN(c2ccc(S(=O)(=O)Oc3cc(OC)c(OC)c(OC)c3)cc2)C1=O,200,140,77,0.302,29,820,6,1200,137,1.53,2400,> 5000,15,83,77,>172,0.3,Activity [4]: 51%; Activity [7]: Non-Toxic; Activity [10]: 11%; Activity [14]: 108%; Activity [16]: 85%; Activity [22]: 38%; Activity [23]: Non-Toxic; Activity [24]: 51%; Activity [25]: Non-Toxic
CCCCCN1CCN(c2ccc(S(=O)(=O)Oc3cccc(I)c3)cc2)C1=O,137,190,24,1.03,140,> 12500,30,4110,>417,1.28,> 12500,> 12500,19,>90,15,>90,1.55,Activity [27]: 37%; Activity [28]: 18%; Activity [29]: 45%; Activity [30]: Active
CCCCCN1CCN(c2ccc(S(=O)(=O)Oc3cc(Cl)cc(Cl)c3)cc2)C1=O,152,1200,9,2.67,50,> 5000,30,4570,>167,2,> 5000,> 5000,12,>100,12.5,>100,1.85,Activity [31]: 34%; Activity [32]: 49%; Activity [33]: 17%; Activity [34]: Active
CCCCCN1CCN(c2ccc(S(=O)(=O)Oc3cccc(Cl)c3)cc2)C1=O,76,600,12,1.83,400,> 12500,90,6850,>139,4.83,> 12500,> 12500,5,>31,11,>31,2.17,Activity [35]: 42%; Activity [36]: Active; Activity [37]: 45%; Activity [38]: 13%
